# Patent US20150190416A1, “FILAGGRIN PRODUCTION PROMOTER, THERAPEUTIC AGENT FOR DISEASES ASSOCIATED WITH REDUCTION IN PRODUCTION OF FILAGGRIN, AND METHOD FOR SCREENING FOR SAID THERAPEUTIC AGENT” (KYOTO UNIVERSITY, priority 2012, published 2015)
# Tests used:
# FLG protein = FLG protein in cultured human normal skin, immunohistostaining (Example 12); assay type: cell-based; settings: 1 μM, 4 days
# From the text: In this example, the expression-increasing effect of Compound 1 (N-quinolylbenzamide derivative) on FLG monomer was examined by using human normal skin. The expression of the FLG monomer was confirmed by an immunohistostaining method using an anti-human FLG antibody. The medium used was a medium for proliferating normal human epidermal keratinocytes (HuMedia-KG2, KURABO INDUSTRIES LTD.). It should be noted that, in this example, surplus portions of normal skin derived from extirpation of portions of a skin disease were used under the agreement by the donor through Ethics Committee of Kyoto University.
# 1) Human normal skin (with a size of 5×5×5 mm) was put on a transwell of a 24-well transwell plate, 500 μl of the medium, to which Compound 1 (1 μM) or a control (vehicle (DMSO)) was added, were added to the lower part, and the skin was cultured. After culture for 2 days, the medium was exchanged for the same medium.
# 2) After 4 days, the cultured skin was collected, and was soaked in 10% formalin overnight, and thereafter, a paraffin section having a thickness of […] was prepared according to a conventional method. […]
# GPR142 [1] = assay: FLG mRNA and GPR142 mRNA in GPR142-overexpressing NHEK cells (Example 7); assay type: cell-based, human; settings: 10 nM, 1 day
# Procedure: In this example, the FLG mRNA expression-inducing effect of Compound 1 in GPR142-overexpressing NHEK cells was confirmed.
# 1) 5×10^4 cells/well of NHEK cells (Invitrogen) were plated on a 24-well plate. Then, a culture medium containing a medium for proliferating normal human epidermal keratinocytes (HuMedia-KG2, KURABO INDUSTRIES LTD.) supplemented with hEGF (0.1 ng/ml), insulin (10 μg/ml), hydrocortisone (0.5 μg/ml), gentamycin (50 μg/ml), amphotericin B (50 ng/ml), and bovine brain pituitary extract (BPE) (0.4%, v/v) was added to the plate, and the cells were cultured under the conditions of 37° C. and 5% CO2.
# 2) A GPR142pCXN mammalian expression vector was prepared by incorporating a human GPR142 gene coding region containing the base sequence set forth in SEQ ID NO: 2 into the EcoRI restriction site of the cloning site in a mammalian expression vector pCXN (Gene 108: 193-199 (1991)). […]
# 5) An extraction reagent (TRIzol™, Invitrogen) was used, and according to the manufacturer's protocol, total RNA was extracted from each of cells treated with the medicament. […] Real-time PCR was conducted by using the same primers as those for GPR142, FLG, and GAPDH used in Example 4 and SYBR™ PremixEx Taq (Takara) with a CFX96 real-time PCR instrument according to the manufacturer's protocol, and the amounts of GPR142 mRNA and FLG mRNA were measured. […]
# GPR142 [2] = assay: G protein-coupled receptor (GPCR) array in NHEK cells, GPR142 (Example 3); assay type: cell-based, human; settings: Compound 1 1 μM, 3 days
# Procedure: In this example, the expression-increasing effect of Compound 1 on a GPCR in NHEK cells was confirmed by using a GPCR array.
# 1) 5×10^4 cells/well of NHEK cells (Invitrogen) were plated on a 24-well plate, and then 500 μl of a culture medium containing a medium for proliferating normal human epidermal keratinocytes (HuMedia-KG2, KURABO INDUSTRIES LTD.) supplemented with hEGF (0.1 ng/ml), insulin (10 μg/ml), hydrocortisone (0.5 μg/ml), gentamycin (50 μg/ml), amphotericin B (50 ng/ml), and bovine brain pituitary extract (BPE) (0.4%, v/v) were added to the plate, and the cells were cultured under the conditions of 37° C. and 5% CO2 for from 3 to 4 days until the 80 to 85% confluent state was achieved.
# 2) Next, a DMSO solution of Compound 1 was added to the medium at 1 μM per well, and culture was further conducted for 3 days without changing the medium. In addition, regarding the system to which only CaCl2 (1.5 mM in terms of Ca) as Ca was added and the system to which both Compound 1 and CaCl2 (1.5 mM in terms of Ca) as Ca were added, the culture was conducted in a similar manner for 3 days. As a control example, a solvent only (vehicle) was added.
# 3) An extraction reagent (TRIzol™, Invitrogen) was used, and according to the manufacturer's protocol, total RNA was extracted from each of cells treated in the step 2). A reverse transcriptase reagent (Prime Script™, Takara) was used, and according to the manufacturer's protocol, cDNA was prepared from the total RNA. Next, a TaqMan™ human GPCR array (AB 4365295, Applied Biosystems) was used, and the analysis was conducted by an ABI PRISM™ 7900HT gene analyzer (Applied Biosystems). The result of measurement was shown as the comparison of the cycle number (ΔCt value) to 18S ribosomal RNA as a control (comparative Ct method).
smiles,measurement,setting,value
"CCc1ccc(OCc2ccccc2C(=O)Nc2ccc3nc(C)cc(N)c3c2)cc1.Cl [Compound 1, N-(4-Amino-2-methyl-6-quinolyl)-2-[(4-ethylphenoxy)methyl]benzamide hydrochloride]",development of the stratum corneum,FLG protein,greater than that of the control
same,FLG protein within the skin,FLG protein; immunohistostaining,markedly increased
same,FLG mRNA expression (GAPDH ratio),GPR142 [1]; GPR142-overexpressing NHEK cells,increased FLG mRNA expression
same,"expression amount of GPR142 mRNA, increase as compared to the control",GPR142 [1]; NHEK cells,about 2.2 times
same,"GPR142 mRNA expression (GPCR array), in words",GPR142 [2]; Ca 1.5 mM,expression was induced
same,GPR142: cycle number (ΔCt value) to 18S ribosomal RNA,"GPR142 [2]; CaCl2 1.5 mM in terms of Ca, control 29.2",−4.9
